Data published in patent publication EP0551518A1, “QUINOLINECARBOXYLIC ACID DERIVATIVE” (NIPPON SHINYAKU COMPANY, LIMITED, priority 1990, dated 1992).
≈ marks a conversion by molar mass, not a printed value. Where two headings read alike, the source gives them in different places.

Legend:
Type in all cases: cell-based
[1] = test system: S. aureus OWPH 1770; assay: Determination of minimal inhibitory concentration (MIC)-2, new quinolone-resistant MRSA; conditions: Staphylococcus aureus, OWPH1770, 18 h; S. aureus OWPH 1770, new quinolone-resistant and methicillin-resistant; same procedure as Test Example 1
Method: (§1) Method: MIC was determined by the agar plate dilution method in accordance with the standard protocol of Japan Society of Chemotherapy (cf. Chemotherapy 29 (1), 76-79, 1981). Each bacterial culture obtained by 18-hour incubation in a sensitivity assay bouillon medium at 37°C was diluted to 10⁶ CFU/ml with the same medium. Using a microplanter, a sensitivity assay agar medium containing the test drug was inoculated with the diluted culture and incubated at 37°C for 18 hours. The MIC value was then determined. As reference drugs, 6-fluoro-1-methyl-4-oxo-7-(1-piperazinyl)-4H-[1,3]thiazeto[3,2-a]quinoline-3-carboxylic acid (referred to as control), ciprofloxacin (CPFX) and ofloxacin (OFLX) were used.
(§2) The antibacterial activity of the compounds obtained in Example 4, Example 25 and Example 26 of the present invention was assayed by the same procedure as in Test Example 1. As reference drugs, 6-fluoro-1-methyl-4-oxo-7-(1-piperazinyl)-4H-[1,3]-thiazeto[3,2-a]quinoline-3-carboxylic acid (referred to as Control), norfloxacin (NFLX) and tosufloxacin (TFLX) were used.

[2] = test system: S. aureus OWPH 1773; assay: as above; conditions: Staphylococcus aureus, OWPH1773, 18 h; S. aureus OWPH 1773, new quinolone-resistant and methicillin-resistant; same procedure as Test Example 1
Method: as §1, §2

[3] = test system: S. aureus OWPH 1786; assay: as above; conditions: Staphylococcus aureus, OWPH1786, 18 h; S. aureus OWPH 1786, new quinolone-resistant and methicillin-resistant; same procedure as Test Example 1
Method: as §1, §2

[4] = test system: S. aureus OWPH 1792; assay: as above; conditions: Staphylococcus aureus, OWPH1792, 18 h; S. aureus OWPH 1792, new quinolone-resistant and methicillin-resistant; same procedure as Test Example 1
Method: as §1, §2

[5] = test system: S. aureus OWPH 1793; assay: as above; conditions: Staphylococcus aureus, OWPH1793, 18 h; S. aureus OWPH 1793, new quinolone-resistant and methicillin-resistant; same procedure as Test Example 1
Method: as §1, §2

[6] = test system: S. aureus OWPH 1796; assay: as above; conditions: Staphylococcus aureus, OWPH1796, 18 h; S. aureus OWPH 1796, new quinolone-resistant and methicillin-resistant; same procedure as Test Example 1
Method: as §1, §2

[7] = test system: S. aureus OWPH 1799; assay: as above; conditions: Staphylococcus aureus, OWPH1799, 18 h; S. aureus OWPH 1799, new quinolone-resistant and methicillin-resistant; same procedure as Test Example 1
Method: as §1, §2

[8] = test system: S. aureus OWPH 2124; assay: as above; conditions: Staphylococcus aureus, OWPH2124, 18 h; S. aureus OWPH 2124, new quinolone-resistant and methicillin-resistant; same procedure as Test Example 1
Method: as §1, §2

[9] = test system: S. aureus OWPH 2127; assay: as above; conditions: Staphylococcus aureus, OWPH2127, 18 h; S. aureus OWPH 2127, new quinolone-resistant and methicillin-resistant; same procedure as Test Example 1
Method: as §1, §2

[10] = test system: S. aureus OWPH 2128; assay: as above; conditions: Staphylococcus aureus, OWPH2128, 18 h; S. aureus OWPH 2128, new quinolone-resistant and methicillin-resistant; same procedure as Test Example 1
Method: as §1, §2

[11] = test system: S. aureus OWPH 2133; assay: as above; conditions: Staphylococcus aureus, OWPH2133, 18 h; S. aureus OWPH 2133, new quinolone-resistant and methicillin-resistant; same procedure as Test Example 1
Method: as §1, §2

[12] = test system: S. aureus OWPH 2134; assay: as above; conditions: Staphylococcus aureus, OWPH2134, 18 h; S. aureus OWPH 2134, new quinolone-resistant and methicillin-resistant; same procedure as Test Example 1
Method: as §1, §2

[13] = test system: S. aureus Sh 2; assay: as above; conditions: Staphylococcus aureus, SH2, 18 h; S. aureus Sh 2, new quinolone-resistant and methicillin-resistant; same procedure as Test Example 1
Method: as §1, §2

[14] = test system: S. aureus Sh 44; assay: as above; conditions: Staphylococcus aureus, SH44, 18 h; S. aureus Sh 44, new quinolone-resistant and methicillin-resistant; same procedure as Test Example 1
Method: as §1, §2

[15] = test system: S. aureus Sh 47; assay: as above; conditions: Staphylococcus aureus, SH47, 18 h; S. aureus Sh 47, new quinolone-resistant and methicillin-resistant; same procedure as Test Example 1
Method: as §1, §2

[16] = test system: S. aureus Sh 54; assay: as above; conditions: Staphylococcus aureus, SH54, 18 h; S. aureus Sh 54, new quinolone-resistant and methicillin-resistant; same procedure as Test Example 1
Method: as §1, §2

[17] = test system: S. aureus Sh 8; assay: as above; conditions: Staphylococcus aureus, SH8, 18 h; S. aureus Sh 8, new quinolone-resistant and methicillin-resistant; same procedure as Test Example 1
Method: as §1, §2

[18] = test system: Bacillus subtilis ATCC 6633; assay: Determination of minimal inhibitory concentration of growth (MIC)-1, agar plate dilution method; conditions: ATCC6633; Bacillus subtilis ATCC 6633; agar plate dilution, 10⁶ CFU/ml, 37°C, 18 hours; read-out: MIC
Method: as §1

[19] = test system: Enterococcus faecalis ATCC 29212; assay: as above; conditions: ATCC29212; Enterococcus faecalis ATCC 29212; agar plate dilution, 10⁶ CFU/ml, 37°C, 18 hours; read-out: MIC
Method: as §1

[20] = test system: Escherichia coli KC-14; assay: as above; conditions: Escherichia coli, KC14, 18 h, 10⁶ CFU/ml, 37°C, read-out: MIC
Method: as §1

[21] = test system: Micrococcus luteus ATCC 9341; assay: as above; conditions: ATCC9341; Micrococcus luteus ATCC 9341; agar plate dilution, 10⁶ CFU/ml, 37°C, 18 hours; read-out: MIC
Method: as §1

[22] = test system: Proteus vulgaris HX-19; assay: as above; conditions: Proteus vulgaris, HX19, 18 h, Proteus vulgaris HX-19; agar plate dilution, 10⁶ CFU/ml, 37°C, 18 hours; read-out: MIC
Method: as §1

[23] = test system: Pseudomonas aeruginosa IFO 3445; assay: as above; conditions: Pseudomonas aeruginosa, IFO3445, 18 h, Pseudomonas aeruginosa IFO 3445; agar plate dilution, 10⁶ CFU/ml, 37°C, 18 hours; read-out: MIC
Method: as §1

[24] = test system: Staphylococcus aureus 209-P JC-1; assay: as above; conditions: Staphylococcus aureus 209-P JC-1, agar plate dilution, 10⁶ CFU/ml, 37°C, 18 hours
Method: as §1

[25] = test system: Staphylococcus aureus OWPH 1984 (MRSA); assay: as above; conditions: Staphylococcus aureus, MRSA, 18 h, Staphylococcus aureus OWPH 1984 (MRSA); agar plate dilution, 10⁶ CFU/ml, 37°C, 18 hours; read-out: MIC
Method: as §1

[26] = test system: Staphylococcus aureus OWPH 2125 (MRSA, PCA^r ); assay: as above; conditions: Staphylococcus aureus OWPH 2125 (MRSA, PCA^r), agar plate dilution, 10⁶ CFU/ml, 37°C, 18 hours
Method: as §1

[27] = test system: Staphylococcus aureus Smith; assay: as above; conditions: Staphylococcus aureus Smith; agar plate dilution, 10⁶ CFU/ml, 37°C, 18 hours; read-out: MIC
Method: as §1

[28] = test system: Staphylococcus epider-midis IFO 12993; assay: as above; conditions: Staphylococcus, IFO12993, 18 h, Staphylococcus epider-midis IFO 12993; agar plate dilution, 10⁶ CFU/ml, 37°C, 18 hours; read-out: MIC
Method: as §1

| MIC [1] | MIC [2] | MIC [3] | MIC [4] | MIC [5] | MIC [6] | MIC [7] | MIC [8] | MIC [9] | MIC [10] | MIC [11] | MIC [12] | MIC [13] | MIC [14] | MIC [15] | MIC [16] | MIC [17] | MIC [18] | MIC [19] | MIC [20] | SMILES | further results |
| --- | --- | --- | --- | --- | --- | --- | --- | --- | --- | --- | --- | --- | --- | --- | --- | --- | --- | --- | --- | --- | --- |
| > 100 µg/mL | > 100 µg/mL | > 100 µg/mL | > 100 µg/mL | > 100 µg/mL | > 100 µg/mL | > 100 µg/mL | 12.5 µg/mL (≈ 30.9 µM) | > 100 µg/mL | > 100 µg/mL | > 100 µg/mL | > 100 µg/mL | > 100 µg/mL | > 100 µg/mL | > 100 µg/mL | > 100 µg/mL | > 100 µg/mL |  |  |  | NC1CCN(c2nc3c(cc2F)c(=O)c(C(=O)O)cn3-c2ccc(F)cc2F)C1 (stereo not shown) [TFLX, tosufloxacin, reference compound] |  |
| 0.39 µg/mL (≈ 1.05 µM) | 0.39 µg/mL (≈ 1.05 µM) | 0.78 µg/mL (≈ 2.1 µM) | 1.56 µg/mL (≈ 4.2 µM) | 1.56 µg/mL (≈ 4.2 µM) | 0.78 µg/mL (≈ 2.1 µM) | 1.56 µg/mL (≈ 4.2 µM) | 0.39 µg/mL (≈ 1.05 µM) | 1.56 µg/mL (≈ 4.2 µM) | 1.56 µg/mL (≈ 4.2 µM) | 1.56 µg/mL (≈ 4.2 µM) | 0.78 µg/mL (≈ 2.1 µM) | 1.56 µg/mL (≈ 4.2 µM) | 0.78 µg/mL (≈ 2.1 µM) | 0.78 µg/mL (≈ 2.1 µM) | 0.78 µg/mL (≈ 2.1 µM) | 0.78 µg/mL (≈ 2.1 µM) | ≤ 6 ng/mL | 0.2 µg/mL (≈ 0.539 µM) | 0.78 µg/mL (≈ 2.1 µM) | COc1c(-c2ccccc2)c(F)cc2c(=O)c(C(=O)O)c3n(c12)C(C)S3 (stereo not shown) [Example 26, 6-Fluoro-8-methoxy-1-methyl-4-oxo-7-phenyl-4H-[1,3]thiazeto[3,2-a]quinoline-3-carboxylic acid] | MIC [21]: 0.78 µg/mL (≈ 2.1 µM); MIC [22]: 0.39 µg/mL (≈ 1.05 µM); MIC [23]: 3.13 µg/mL (≈ 8.43 µM); MIC ([24]; Staphylococcus aureus, 209P, 18 h, read-out: MIC): 0.025 µg/mL (≈ 0.0673 µM); MIC [25]: 0.025 µg/mL (≈ 0.0673 µM); MIC ([26]; Staphylococcus aureus, MRSA, 18 h, read-out: MIC): 0.1 µg/mL (≈ 0.269 µM); MIC [27]: 0.012 µg/mL (≈ 0.0323 µM); MIC [28]: 0.025 µg/mL (≈ 0.0673 µM) |
| 0.2 µg/mL (≈ 0.561 µM) | 0.78 µg/mL (≈ 2.19 µM) | 1.56 µg/mL (≈ 4.38 µM) | 0.78 µg/mL (≈ 2.19 µM) | 1.56 µg/mL (≈ 4.38 µM) | 0.78 µg/mL (≈ 2.19 µM) | 1.56 µg/mL (≈ 4.38 µM) | 0.78 µg/mL (≈ 2.19 µM) | 1.56 µg/mL (≈ 4.38 µM) | 1.56 µg/mL (≈ 4.38 µM) | 0.78 µg/mL (≈ 2.19 µM) | 0.78 µg/mL (≈ 2.19 µM) | 0.78 µg/mL (≈ 2.19 µM) | 0.78 µg/mL (≈ 2.19 µM) | 0.78 µg/mL (≈ 2.19 µM) | 0.78 µg/mL (≈ 2.19 µM) | 0.78 µg/mL (≈ 2.19 µM) | ≤ 6 ng/mL | 0.05 µg/mL (≈ 0.14 µM) | 0.025 µg/mL (≈ 0.0702 µM) | CC1Sc2c(C(=O)O)c(=O)c3cc(F)c(-c4ccc(N)cc4)cc3n21 (stereo not shown) [Example 4, 7-(4-Aminophenyl)-6-fluoro-1-methyl-4-oxo-4H-[1,3]thia-zeto[3,2-a]quinoline-3-carboxylic acid] | MIC [21]: 0.2 µg/mL (≈ 0.561 µM); MIC [22]: 0.012 µg/mL (≈ 0.0337 µM); MIC [23]: 0.1 µg/mL (≈ 0.281 µM); MIC [24]: 0.012 μ g/ml; MIC [25]: ≤ 0.006 µg/mL; MIC [26]: ≤ 0.006 μ g/ml; MIC [27]: ≤ 0.006 µg/mL; MIC [28]: ≤ 0.006 µg/mL |
